Reference: patent US20250122208A1, “CHEMOKINE RECEPTOR MODULATORS AND USES THEREOF” (RAPT THERAPEUTICS, INC., priority 2023, published 2025)

Molecular target: T1, CCR4 receptor (Homo sapiens, UniProt P51679)
T1 construct: beta-galactosidase enzyme-fragment tag; From own knowledge, PathHunter uses a ProLink/enzyme-donor fragment, usually at the receptor's C-terminus; expressed in transfected cells; host or cells: CHO-K1
T1 sequence (P51679 1-360): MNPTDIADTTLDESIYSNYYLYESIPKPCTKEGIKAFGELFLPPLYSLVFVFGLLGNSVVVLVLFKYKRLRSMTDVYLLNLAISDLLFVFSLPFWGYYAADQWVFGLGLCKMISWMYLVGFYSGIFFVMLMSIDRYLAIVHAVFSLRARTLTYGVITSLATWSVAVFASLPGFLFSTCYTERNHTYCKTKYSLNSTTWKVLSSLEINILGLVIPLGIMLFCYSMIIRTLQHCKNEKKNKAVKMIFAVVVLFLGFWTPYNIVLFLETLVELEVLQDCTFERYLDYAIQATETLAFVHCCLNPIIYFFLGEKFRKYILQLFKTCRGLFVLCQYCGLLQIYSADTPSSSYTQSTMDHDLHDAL
Test: CCR4 antagonist activity in Beta-Arrestin Cellular Assay (PathHunter, CCL22 challenge)
Format: cell-based
Settings: CHO-K1 cells expressing the CCR4 receptor; CCL22 at EC80 (15 nM), 90 minutes; 30 min pre-incubation; read-out: Potency (CCR4 antagonist IC50 in the β-arrestin assay)
Method: Example 39. Determination of CCR4 antagonist activity in Beta-Arrestin Cellular Assay
CCR4 Antagonistic Activity was assessed in Beta-Arrestin Cellular Assay. Compounds were assessed in CHO-K1 cells expressing the CCR4 receptor modified to enable β-glactosidase detection of β-arrestin agonist activity stimulated by CCL22 in a chemiluminescence assay. Cells were seeded in a total volume of 20 μL into white walled, 384-well microplates and incubated at 37° C. prior to testing. Cells were pre-incubated with test compound for 30 min at 37° C. followed by agonist challenge with CCL22 at the EC80 concentration (15 nM) for 90 minutes. Assay signal was generated through a single addition of 12.5 or 15 μL ([…]) of PathHunter Detection reagent cocktail, followed by a one-hour incubation at room temperature. Microplates were read following signal generation with a PerkinElmer Envision™ instrument for chemiluminescent signal detection. Antagonist activity was analyzed using CBIS data analysis suite (ChemInnovation, CA). Antagonist activity was characterized as percentage inhibition calculated using the following formula:
An IC50 of >500 nM is designated as Potency C, an IC50 of between 500 nM and 100 nM is designated as Potency B and an IC50 of <100 nM is designated as Potency A.

Row | IC50 | SMILES
1 | < 100 nM | C[C@@H](Nc1cc(N2CCC([C@H]3CCCN(CCS(C)(=O)=O)C3)CC2)nc2ncnn12)c1ccc(Cl)cc1Cl [Example 12, N-((R)-1-(2,4-dichlorophenyl)ethyl)-5-((R)-1-(2-(methylsulfonyl)ethyl)-[3,4′-bipiperidin]-1′-yl)-[1,2,4]triazolo[1,5-a]pyrimidin-7-amine]
2 | 100 to 500 nM | C[C@@H](Nc1cc(N2CCC([C@H]3CCCN([C@H]4C[C@](C)(C(=O)O)C4)C3)CC2)nc2ncnn12)c1ccc(F)cc1F [Example 35, (1R,3r)-3-((R)-1′-(7-(((R)-1-(2,4-difluorophenyl)ethyl)amino)-[1,2,4]triazolo[1,5-a]pyrimidin-5-yl)-[3,4′-bipiperidin]-1-yl)-1-methylcyclobutane-1-carboxylic acid]
3 | < 100 nM | CNC(=O)CCN1CCC[C@H](C2CCN(c3cc(N[C@H](C)c4ccc(Cl)cc4Cl)n4ncnc4n3)CC2)C1 [Example 17, 3-((R)-1′-(7-(((R)-1-(2,4-dichlorophenyl)ethyl)amino)-[1,2,4]triazolo[1,5-a]pyrimidin-5-yl)-[3,4′-bipiperidin]-1-yl)-N-methylpropanamide]
4 | < 100 nM | C[C@@H](Nc1cc(N2CCC([C@H]3CCCN([C@H]4C[C@](C)(C(=O)O)C4)C3)CC2)nc2nccn12)c1ccc(Cl)cc1F [Example 27, (1R,3r)-3-((R)-1′-(5-(((R)-1-(4-chloro-2-fluorophenyl)ethyl)amino)imidazo[1,2-a]pyrimidin-7-yl)-[3,4′-bipiperidin]-1-yl)-1-methylcyclobutane-1-carboxylic acid]
5 | < 100 nM | C[C@@H](Nc1cc(N2CCC([C@H]3CCCN([C@H]4C[C@](C)(C(=O)O)C4)C3)CC2)nc2ncnn12)c1ccc(Cl)cc1F [Example 37, (1R,3r)-3-((R)-1′-(7-(((R)-1-(4-chloro-2-fluorophenyl)ethyl)amino)-[1,2,4]triazolo[1,5-a]pyrimidin-5-yl)-[3,4′-bipiperidin]-1-yl)-1-methylcyclobutane-1-carboxylic acid]
6 | < 100 nM | CC(CN1CCC[C@H](C2CCN(c3cc(N[C@H](C)c4ccc(Cl)cc4Cl)n4ncnc4n3)CC2)C1)C(=O)O (mixture of isomers) [Example 15, 3-((R)-1′-(7-(((R)-1-(2,4-dichlorophenyl)ethyl)amino)-[1,2,4]triazolo[1,5-a]pyrimidin-5-yl)-[3,4′-bipiperidin]-1-yl)-2-methylpropanoic acid]
7 | < 100 nM | C[C@@H](Nc1cc(N2CCC([C@H]3CCCN(C4CCOCC4)C3)CC2)nc2ncnn12)c1ccc(Cl)cc1Cl [Example 6, N-((R)-1-(2,4-dichlorophenyl)ethyl)-5-((R)-1-(tetrahydro-2H-pyran-4-yl)-[3,4′-bipiperidin]-1′-yl)-[1,2,4]triazolo[1,5-a]pyrimidin-7-amine]
